Read-outs that look alike come from different tables or passages of the source.
Molecular target: T1, human sweet receptor (T1R2 and T1R3) (Homo sapiens, UniProt Q7RTX0+Q8TE23)
T1 construct: expressed in transfected cells; host or cells: HEK293 cells co-expressing Galpha15
T1 sequence (Q8TE23 20-839): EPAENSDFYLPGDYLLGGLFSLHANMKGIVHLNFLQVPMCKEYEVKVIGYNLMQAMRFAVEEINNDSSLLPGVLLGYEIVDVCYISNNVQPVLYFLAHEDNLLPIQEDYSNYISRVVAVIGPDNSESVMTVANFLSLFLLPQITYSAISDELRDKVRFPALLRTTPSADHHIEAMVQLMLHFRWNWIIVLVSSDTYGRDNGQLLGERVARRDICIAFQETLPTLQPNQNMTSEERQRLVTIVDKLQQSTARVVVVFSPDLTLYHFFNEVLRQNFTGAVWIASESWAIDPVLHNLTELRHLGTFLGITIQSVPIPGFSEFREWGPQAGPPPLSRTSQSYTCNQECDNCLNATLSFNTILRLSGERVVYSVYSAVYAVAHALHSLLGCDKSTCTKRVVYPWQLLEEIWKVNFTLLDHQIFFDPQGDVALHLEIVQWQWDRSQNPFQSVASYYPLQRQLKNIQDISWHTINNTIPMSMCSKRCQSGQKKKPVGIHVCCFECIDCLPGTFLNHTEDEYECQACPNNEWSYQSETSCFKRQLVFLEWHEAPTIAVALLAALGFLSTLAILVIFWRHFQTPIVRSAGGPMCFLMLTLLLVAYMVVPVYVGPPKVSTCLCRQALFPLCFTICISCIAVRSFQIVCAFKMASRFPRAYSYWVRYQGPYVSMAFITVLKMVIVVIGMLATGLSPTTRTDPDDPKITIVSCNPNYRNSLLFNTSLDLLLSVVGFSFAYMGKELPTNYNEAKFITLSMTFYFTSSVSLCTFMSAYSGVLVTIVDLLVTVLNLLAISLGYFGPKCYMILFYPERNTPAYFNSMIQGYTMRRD
T1 sequence (Q7RTX0 21-852): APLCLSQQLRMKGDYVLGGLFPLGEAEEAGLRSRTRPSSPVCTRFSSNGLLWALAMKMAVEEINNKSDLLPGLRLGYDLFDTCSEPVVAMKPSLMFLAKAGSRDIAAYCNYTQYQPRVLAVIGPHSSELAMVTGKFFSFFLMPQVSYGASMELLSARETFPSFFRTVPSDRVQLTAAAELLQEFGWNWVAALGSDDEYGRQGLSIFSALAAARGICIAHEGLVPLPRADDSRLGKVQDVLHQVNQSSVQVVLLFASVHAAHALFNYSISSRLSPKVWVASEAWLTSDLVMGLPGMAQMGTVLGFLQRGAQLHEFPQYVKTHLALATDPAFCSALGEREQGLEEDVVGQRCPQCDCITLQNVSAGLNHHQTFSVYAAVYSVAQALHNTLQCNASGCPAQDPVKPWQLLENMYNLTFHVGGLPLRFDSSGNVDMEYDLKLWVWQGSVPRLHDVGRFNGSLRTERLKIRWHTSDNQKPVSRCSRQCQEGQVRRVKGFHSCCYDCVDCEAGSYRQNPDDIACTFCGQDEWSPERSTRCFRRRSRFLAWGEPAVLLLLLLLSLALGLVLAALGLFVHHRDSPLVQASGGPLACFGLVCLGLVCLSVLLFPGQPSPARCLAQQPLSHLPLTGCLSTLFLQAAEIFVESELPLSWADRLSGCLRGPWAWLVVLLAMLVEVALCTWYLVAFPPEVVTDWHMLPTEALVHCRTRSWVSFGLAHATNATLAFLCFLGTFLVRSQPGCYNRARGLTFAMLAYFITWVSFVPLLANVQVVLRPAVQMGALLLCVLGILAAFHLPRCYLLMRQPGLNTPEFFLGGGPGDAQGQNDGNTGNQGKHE
Assay: Calcium imaging (Fluo3AM/FLIPR) sweet receptor enhancer assay in hT1R2/hT1R3-HEK293 Galpha15 cells, with pre-incubation step
Assay type: cell-based
Details: read-out: potency of Sucralose (dose-response)
Description: In the subject assays the receptor or cells expressing same will be placed in a suitable environment that facilitates the receptor or cells to be used in the particular assay. For instance, in the exemplified calcium imaging assays cells which express hT1R2/hT1R3-HEK293 G[…]15 cells were seeded in 384-well-clear bottom plates (Fisher) at a density of ˜50,000 cells/well and grown overnight at 37 degrees C. However, it is anticipated that these cell density conditions and/or cell culture devices potentially may be altered.
On the day of the experiment, cells were loaded with a commercially available calcium indicator dye Fluo3AM (2 uM) (Invitrogen) in D-PBS (Invitrogen) using a Multidrop (Titertek). (Again while Fluo3AM is exemplified it is anticipated that other known and available calcium indicators can be substituted therefore). […] After 30 minutes of rest time at room temperature, Fluo3AM-loaded cell plate, a compound plate and a sweetener plate were loaded into a Fluorometric Imaging Plate Reader (FLIPR, Molecular Devices). […] Imaging was initiated with the acquisition of the baseline fluorescence for a period of 7 to 10 seconds, and then cells were stimulated on line with addition of 25 µl/well of the compound plate (pre-incubation step). […]

OC[C@H]1O[C@H](O[C@]2(CCl)O[C@H](CCl)[C@@H](O)[C@@H]2O)[C@H](O)[C@@H](O)[C@H]1Cl [Sucralose]
EC50 (cells pre-incubated with S2423 (50 uM or 25 uM final)): 11 µM
EC50 (without S2423): 53 µM
